These results are taken from US20040022667A1 (priority 2001, published 2004).

The conditions of data set [1]: 20° C.; cited from earlier work.
The test system of data set [2] is anthrax spores. Type of data set: cell-based, Bacillus anthracis. Conditions: ~50 ppm (approx. 50 mg/liter) pure ClO2 in water.

As to `O=O` [oxygen], the “solubility per liter of water” value in data set [1] was 9.2 mg.

With Chlorine dioxide, the “time to substantially destroy anthrax spores” value in data set [2] is on record as “less than 1 min”.
